The test system of one assay is P. aeruginosa WT (PAO1). Briefly: MIC, CLSI broth microdilution, P. aeruginosa. In kind it is cell-based. Particulars: Pseudomonas aeruginosa.
The next assay concerns the target P. aeruginosa PBP1a (Pseudomonas aeruginosa, UniProt Q07806). In kind it is biochemical. Particulars: P. aeruginosa PBP1a 60 nM, BOCILLIN FL 30 nM, pH 7.0.
The next assay addresses P. aeruginosa PBP3 (Pseudomonas aeruginosa, UniProt G3XD46). The format is biochemical. Particulars: P. aeruginosa PBP3 60 nM, BOCILLIN FL 30 nM, pH 7.0.
The next assay relates to A. baumannii (ARC3495). Briefly: MIC against A. baumannii. Particulars: Acinetobacter baumannii, read-out: A. baumannii MIC (ARC3495) (mg/L).
The test system of assay [1] is K. pneumoniae (ATCC700603). Briefly: MIC against K. pneumoniae. The settings on record: Klebsiella pneumoniae, ATCC700603, read-out: K. pneumoniae MIC (ATCC700603).
The subject of another assay is E. coli (ATCC25922). Briefly: MIC against E. coli. The settings on record: Escherichia coli, ATCC25922, read-out: E. coli MIC (ATCC25922) (mg/L).
Where [2] appears, read: PAO1, CLSI broth microdilution, read-out: P. aeruginosa WT (PAO1) MIC.

Structures are written as SMILES. Values after ≈ are worked out from the molar mass of the structure shown. Structures can show the parent of a compound that is named as a salt. Where two headings read alike, the source gives them in different places.

Sequence of P. aeruginosa PBP1a (Q07806 whole entry): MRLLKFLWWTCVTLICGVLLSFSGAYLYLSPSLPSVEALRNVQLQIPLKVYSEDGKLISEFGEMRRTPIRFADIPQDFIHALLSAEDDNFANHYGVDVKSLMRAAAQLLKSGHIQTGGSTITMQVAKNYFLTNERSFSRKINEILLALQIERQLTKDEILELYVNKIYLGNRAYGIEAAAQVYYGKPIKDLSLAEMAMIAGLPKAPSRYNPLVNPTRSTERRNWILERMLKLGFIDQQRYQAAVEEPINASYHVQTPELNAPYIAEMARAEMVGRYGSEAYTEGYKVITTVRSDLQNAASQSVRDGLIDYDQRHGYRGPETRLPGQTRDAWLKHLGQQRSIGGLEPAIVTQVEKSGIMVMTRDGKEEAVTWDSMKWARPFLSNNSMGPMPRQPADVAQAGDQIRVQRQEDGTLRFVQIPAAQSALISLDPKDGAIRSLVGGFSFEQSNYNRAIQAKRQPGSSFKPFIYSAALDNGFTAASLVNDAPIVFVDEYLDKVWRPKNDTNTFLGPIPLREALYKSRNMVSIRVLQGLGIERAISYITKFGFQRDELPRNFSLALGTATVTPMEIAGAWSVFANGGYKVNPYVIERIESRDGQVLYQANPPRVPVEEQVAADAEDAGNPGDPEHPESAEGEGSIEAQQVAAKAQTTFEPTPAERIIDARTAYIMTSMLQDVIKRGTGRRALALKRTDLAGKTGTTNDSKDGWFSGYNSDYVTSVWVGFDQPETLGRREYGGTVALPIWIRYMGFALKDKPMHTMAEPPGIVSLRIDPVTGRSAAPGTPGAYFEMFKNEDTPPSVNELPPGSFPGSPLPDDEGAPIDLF
Sequence of P. aeruginosa PBP3 (G3XD46 whole entry): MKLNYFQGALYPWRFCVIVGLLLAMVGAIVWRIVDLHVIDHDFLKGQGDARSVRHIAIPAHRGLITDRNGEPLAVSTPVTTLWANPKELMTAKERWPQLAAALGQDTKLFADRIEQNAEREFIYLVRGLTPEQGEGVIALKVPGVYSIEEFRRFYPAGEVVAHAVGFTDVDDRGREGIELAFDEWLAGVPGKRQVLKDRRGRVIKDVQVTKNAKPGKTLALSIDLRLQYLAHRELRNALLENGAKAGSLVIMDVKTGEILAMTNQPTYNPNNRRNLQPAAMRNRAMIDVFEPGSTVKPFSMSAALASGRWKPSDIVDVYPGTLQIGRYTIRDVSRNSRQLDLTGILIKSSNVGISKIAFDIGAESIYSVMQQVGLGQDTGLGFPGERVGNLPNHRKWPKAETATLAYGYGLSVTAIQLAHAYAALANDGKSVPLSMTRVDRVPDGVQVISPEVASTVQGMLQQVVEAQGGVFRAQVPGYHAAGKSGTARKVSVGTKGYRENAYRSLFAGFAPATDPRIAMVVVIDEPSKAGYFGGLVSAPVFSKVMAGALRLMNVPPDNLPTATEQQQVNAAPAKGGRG

As for `CNC(=O)O/N=C(\NC)[C@@H]1c2c(cnn2C)[C@@H]2CN1C(=O)N2OS(=O)(=O)O` (racemic) [Example 20], the MIC was 8 to 16 mg/L (≈ 19.8 to 39.7 µM) in the assay on P. aeruginosa WT (PAO1) (PAO1, read-out: P. aeruginosa WT (PAO1) MIC (mg/L)); 8 to 16 mg/L (≈ 19.8 to 39.7 µM) with A. baumannii (ARC3495); above 16 µg/mL in assay [1]; 8 to 16 mg/L (≈ 19.8 to 39.7 µM) with E. coli (ATCC25922). Moreover, the “PBP1a acylation rate, k(on) (M^−1 · s^−1)” value (shortened to “PBP1a acylation rate”) on P. aeruginosa PBP1a is recorded as “** (** represents a k(on) of 100 to 10,000 M^−1 · s^−1)”. Moreover, the “PBP3 acylation rate, k(on) (M^−1 · s^−1)” value on P. aeruginosa PBP3 is “*** (*** represents a k(on) > 10,000 M^−1 · s^−1)”.

For `CN/C(=N\OCC(=O)NCCCCN)[C@@H]1c2c(cnn2C)[C@@H]2CN1C(=O)N2OS(=O)(=O)O` (racemic) [Example 59], the MIC in the assay with P. aeruginosa WT (PAO1) (setting [2]) was below 8 mg/L; in the assay with A. baumannii (ARC3495) it was 8 to 16 mg/L (≈ 16.9 to 33.7 µM); in assay [1] it was above 16 µg/mL; with E. coli (ATCC25922) it was 8 to 16 mg/L (≈ 16.9 to 33.7 µM). Moreover, the “PBP1a acylation rate” value on P. aeruginosa PBP1a is “** (** represents a k(on) of 100 to 10,000 M^−1 · s^−1)”. Besides, the “PBP3 acylation rate, k(on) (M^−1 · s^−1)” value at P. aeruginosa PBP3 is given as “*** (*** represents a k(on) > 10,000 M^−1 · s^−1)”.

`CN/C(=N\OC(=O)N[C@H]1CC[C@H](N)CC1)[C@@H]1c2c(cnn2C)[C@@H]2CN1C(=O)N2OS(=O)(=O)O` (racemic) [Example 30]: the MIC in the assay on P. aeruginosa WT (PAO1) (setting [2]) is below 8 mg/L; in the assay with A. baumannii (ARC3495) it was 8 to 16 mg/L (≈ 16.4 to 32.9 µM); in assay [1], above 16 µg/mL; in the assay on E. coli (ATCC25922), 8 to 16 mg/L (≈ 16.4 to 32.9 µM). The “PBP1a acylation rate” value on P. aeruginosa PBP1a is listed as “** (** represents a k(on) of 100 to 10,000 M^−1 · s^−1)”. The “PBP3 acylation rate, k(on) (M^−1 · s^−1)” value at P. aeruginosa PBP3 is listed as “*** (*** represents a k(on) > 10,000 M^−1 · s^−1)”.

As for `CN/C(=N\OC(=O)NCCN)[C@@H]1c2c(cnn2C)[C@@H]2CN1C(=O)N2OS(=O)(=O)O` (racemic) [Example 18, (4R,8S)-8-((Z)—N′-(((2-aminoethyl)carbamoyl)oxy)-N-methylcarbamimidoyl)-1-methyl-6-oxo-4,8-dihydro-1H-4,7-methanopyrazolo[3,4-e][1,3]diazepin-5(6H)-yl hydrogen sulfate], the MIC in the assay on P. aeruginosa WT (PAO1) (setting [2]) is below 8 mg/L; with A. baumannii (ARC3495), 8 to 16 mg/L; in assay [1], 8 to 16 µg/mL; in the assay with E. coli (ATCC25922) it was below 8 mg/L. The “PBP1a acylation rate” value on P. aeruginosa PBP1a was “** (** represents a k(on) of 100 to 10,000 M^−1 · s^−1)”. Moreover, the “PBP3 acylation rate, k(on) (M^−1 · s^−1)” value on P. aeruginosa PBP3 is given as “*** (*** represents a k(on) > 10,000 M^−1 · s^−1)”.

For the compound `CN/C(=N\OC(=O)NCCCCN)[C@@H]1c2c(cnn2C)[C@@H]2CN1C(=O)N2OS(=O)(=O)O` (racemic) [Example 19], the MIC is below 8 mg/L in the assay with P. aeruginosa WT (PAO1) (setting [2]), 8 to 16 mg/L (≈ 17.4 to 34.7 µM) in the assay with A. baumannii (ARC3495), above 16 µg/mL in assay [1] and 8 to 16 mg/L (≈ 17.4 to 34.7 µM) in the assay on E. coli (ATCC25922). In addition, the “PBP1a acylation rate” value at P. aeruginosa PBP1a was “** (** represents a k(on) of 100 to 10,000 M^−1 · s^−1)”. Besides, at P. aeruginosa PBP3, the “PBP3 acylation rate, k(on) (M^−1 · s^−1)” value was “*** (*** represents a k(on) > 10,000 M^−1 · s^−1)”.

For the compound `CN(C(N)=O)/C(=N\OC(=O)NCCNC(N)=O)[C@@H]1c2c(cnn2C)[C@@H]2CN1C(=O)N2OS(=O)(=O)O` [Example 43, (4R,8S)-8-((Z)—N-carbamoyl-N-methyl-N′-(((2-ureidoethyl)carbamoyl)oxy)carbamimidoyl)-1-methyl-6-oxo-4,8-dihydro-1H-4,7-methanopyrazolo[3,4-e][1,3]diazepin-5(6H)-yl hydrogen sulfate], the MIC with P. aeruginosa WT (PAO1) (setting [2]) was above 16 mg/L; in the assay on A. baumannii (ARC3495) it was above 16 mg/L; in assay [1] it was above 16 µg/mL; with E. coli (ATCC25922), below 8 mg/L. Moreover, at P. aeruginosa PBP1a, the “PBP1a acylation rate” value is listed as “** (** represents a k(on) of 100 to 10,000 M^−1 · s^−1)”. Moreover, on P. aeruginosa PBP3, the “PBP3 acylation rate, k(on) (M^−1 · s^−1)” value is recorded as “*** (*** represents a k(on) > 10,000 M^−1 · s^−1)”.

`CN/C(=N\OS(N)(=O)=O)[C@@H]1c2c(cnn2C)[C@@H]2CN1C(=O)N2OS(=O)(=O)O` [Example 46, (4R,8S)-1-methyl-8-((Z)—N-methyl-N′-(sulfamoyloxy)carbamimidoyl)-6-oxo-4,8-dihydro-1H-4,7-methanopyrazolo[3,4-e][1,3]diazepin-5(6H)-yl hydrogen sulfate]: the MIC in the assay with P. aeruginosa WT (PAO1) (setting [2]) was 8 to 16 mg/L; with A. baumannii (ARC3495), above 16 mg/L; in assay [1] it was 8 to 16 µg/mL; in the assay with E. coli (ATCC25922), 8 to 16 mg/L. Also, the “PBP1a acylation rate” value at P. aeruginosa PBP1a is recorded as “** (** represents a k(on) of 100 to 10,000 M^−1 · s^−1)”. Moreover, on P. aeruginosa PBP3, the “PBP3 acylation rate, k(on) (M^−1 · s^−1)” value is on record as “*** (*** represents a k(on) > 10,000 M^−1 · s^−1)”.

`CN/C(=N\O)[C@@H]1c2c(cnn2CCNC(C)=O)[C@@H]2CN1C(=O)N2OS(=O)(=O)O` [Example 48, (4R,8S)-1-(2-acetamidoethyl)-8-((Z)—N′-hydroxy-N-methylcarbamimidoyl)-6-oxo-4,8-dihydro-1H-4,7-methanopyrazolo[3,4-e][1,3]diazepin-5(6H)-yl hydrogen sulfate]: the MIC was 8 to 16 mg/L in the assay with P. aeruginosa WT (PAO1) (setting [2]), above 16 mg/L in the assay on A. baumannii (ARC3495), above 16 µg/mL in assay [1] and below 8 mg/L in the assay on E. coli (ATCC25922). Moreover, at P. aeruginosa PBP1a, the “PBP1a acylation rate” value is “* (* represents a k(on) < 100 M^−1 · s^−1)”. Also, at P. aeruginosa PBP3, the “PBP3 acylation rate, k(on) (M^−1 · s^−1)” value is given as “*** (*** represents a k(on) > 10,000 M^−1 · s^−1)”.

`CN/C(=N\O)[C@@H]1c2c(cnn2CC(N)=O)[C@@H]2CN1C(=O)N2OS(=O)(=O)O` [Example 50, (4R,8S)-1-(2-amino-2-oxoethyl)-8-((Z)—N′-hydroxy-N-methylcarbamimidoyl)-6-oxo-4,8-dihydro-1H-4,7-methanopyrazolo[3,4-e][1,3]diazepin-5(6H)-yl sulfate]: the MIC in the assay with P. aeruginosa WT (PAO1) (setting [2]) was below 8 mg/L; in the assay with A. baumannii (ARC3495), 8 to 16 mg/L; in assay [1], below 8 µg/mL; in the assay with E. coli (ATCC25922), below 8 mg/L. The “PBP1a acylation rate” value on P. aeruginosa PBP1a was “** (** represents a k(on) of 100 to 10,000 M^−1 · s^−1)”. For the same compound, the “PBP3 acylation rate, k(on) (M^−1 · s^−1)” value on P. aeruginosa PBP3 is recorded as “*** (*** represents a k(on) > 10,000 M^−1 · s^−1)”.

Regarding `CN/C(=N\OC(=O)NCCCC[C@H](N)C(=O)O)[C@@H]1c2c(cnn2C)[C@@H]2CN1C(=O)N2OS(=O)(=O)O` (racemic) [Example 31], the MIC was 8 to 16 mg/L (≈ 15.4 to 30.9 µM) with P. aeruginosa WT (PAO1) (setting [2]), above 16 mg/L in the assay on A. baumannii (ARC3495), above 16 µg/mL in assay [1] and below 8 mg/L in the assay on E. coli (ATCC25922). Further, the “PBP1a acylation rate” value at P. aeruginosa PBP1a was “** (** represents a k(on) of 100 to 10,000 M^−1 · s^−1)”. The “PBP3 acylation rate, k(on) (M^−1 · s^−1)” value at P. aeruginosa PBP3 is given as “*** (*** represents a k(on) > 10,000 M^−1 · s^−1)”.

On to `CN/C(=N\OC(=O)NCCCC[C@H](N)C(=O)OC(C)(C)C)[C@@H]1c2c(cnn2C)[C@@H]2CN1C(=O)N2OS(=O)(=O)O` (racemic) [Example 32], for which the MIC in the assay on P. aeruginosa WT (PAO1) (setting [2]) was above 16 mg/L; in the assay with A. baumannii (ARC3495) it was above 16 mg/L; in assay [1], above 16 µg/mL; in the assay with E. coli (ATCC25922) it was below 8 mg/L. Also, the “PBP1a acylation rate” value at P. aeruginosa PBP1a is listed as “** (** represents a k(on) of 100 to 10,000 M^−1 · s^−1)”. In addition, on P. aeruginosa PBP3, the “PBP3 acylation rate, k(on) (M^−1 · s^−1)” value is listed as “*** (*** represents a k(on) > 10,000 M^−1 · s^−1)”.

Take `CN/C(=N\OC(=O)NCCNC(C)=O)[C@@H]1c2c(cnn2C)[C@@H]2CN1C(=O)N2OS(=O)(=O)O` [Example 44, (4R,8S)-8-((Z)—N′-(((2-acetamidoethyl)carbamoyl)oxy)-N-methylcarbamimidoyl)-1-methyl-6-oxo-4,8-dihydro-1H-4,7-methanopyrazolo[3,4-e][1,3]diazepin-5(6H)-yl hydrogen sulfate]: the MIC is above 16 mg/L in the assay with P. aeruginosa WT (PAO1) (setting [2]), above 16 mg/L in the assay on A. baumannii (ARC3495), above 16 µg/mL in assay [1] and 8 to 16 mg/L with E. coli (ATCC25922). Besides, on P. aeruginosa PBP1a, the “PBP1a acylation rate” value was “** (** represents a k(on) of 100 to 10,000 M^−1 · s^−1)”. The “PBP3 acylation rate, k(on) (M^−1 · s^−1)” value on P. aeruginosa PBP3 was “*** (*** represents a k(on) > 10,000 M^−1 · s^−1)”.

The values are drawn from US11046694B2, “Compounds and methods for treating bacterial infections” (Entasis Therapeutics, Inc., priority 2018, dated 2021).
